# Experimental data: publication PMC6076925, “Identification of Digestive Enzyme Inhibitors from Ludwigia octovalvis (Jacq.) P.H.Raven” (Evidence-based Complementary and Alternative Medicine : eCAM, 2018)
# Key:
# [1] = molecular target: T1, lipase from porcine pancreas (Sus scrofa, UniProt P00591); assay: Pancreatic lipase inhibition assay (DMPTB/DTNB); format: biochemical; settings: for inhibition at 250 µg/mL: sample at 0.25 mg/mL
# T1 construct: lipase from porcine pancreas (PPL type II, 100–500 units/mg, L3126); purchased Sigma–Aldrich L3126; host or cells: porcine pancreas
# T1 sequence (P00591 1-450): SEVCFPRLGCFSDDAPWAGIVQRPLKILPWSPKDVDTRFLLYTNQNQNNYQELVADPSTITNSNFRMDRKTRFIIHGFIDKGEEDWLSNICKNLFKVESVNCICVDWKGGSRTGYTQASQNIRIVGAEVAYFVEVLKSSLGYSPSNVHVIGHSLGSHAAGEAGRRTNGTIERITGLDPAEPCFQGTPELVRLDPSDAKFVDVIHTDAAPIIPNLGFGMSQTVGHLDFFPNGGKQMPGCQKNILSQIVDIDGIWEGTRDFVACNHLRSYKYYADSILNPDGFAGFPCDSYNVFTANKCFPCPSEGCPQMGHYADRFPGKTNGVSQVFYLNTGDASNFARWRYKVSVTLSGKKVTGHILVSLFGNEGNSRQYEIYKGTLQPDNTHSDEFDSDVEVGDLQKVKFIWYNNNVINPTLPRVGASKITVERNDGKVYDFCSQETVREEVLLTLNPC
# Experimental: Pancreatic lipase inhibition assay was previously reported. Briefly, the absorbance of a mixture of DTNB 0.2 mM, DMPTB 0.8 mM, NaCl 0.1M, CaCl2 2 mM, Triton X–100 0.04%, porcine lipase 65 μg/mL, and the sample (dissolved in DMSO and water) at 0.25 mg/mL was followed with a Thermo Scientific Genesys 20 Visible Spectrophotometer (Fisher Scientific, 4001000, Hampton, NH) at 412 nm every 20 s for five minutes and plotted (Excel, Microsoft) to obtain initial velocity value. The lipase was prepared as a stock at 10 mg/mL in Tris–HCl 25 mM pH 6.2 with 0.1 M NaCl, SDS 2 mM, and 250 μL/mL of glycerol. A control assay without substrate was carried out to discard nonspecific reactions with DTMB. All reactions were tested by triplicate.
# (§1) The logarithm of the concentration was plotted on the x-axis and the percentage of enzymatic inhibitory activity on the y-axis to obtain a semilogarithmic graphic.
# pancreatic lipase = molecular target: T2, pancreatic lipase (Sus scrofa, UniProt P00591); assay: Type of inhibition on pancreatic lipase by Lineweaver–Burk plots; format: biochemical, porcine
# T2 construct: lipase from porcine pancreas (PPL type II, 100–500 units/mg, L3126); purchased Sigma–Aldrich L3126; host or cells: porcine pancreas
# T2 sequence (P00591 1-450): T1 sequence (P00591 1-450)
# Experimental: (§2) The type of inhibition was determined quantifying the activity with and without inhibitor at different substrate concentrations (5–0.35 mg/mL for α–glucosidases and 0.05–0.2 μg/mL for pancreatic lipase) and comparing Lineweaver–Burk plots (inverse substrate concentration [S] and inverse reaction velocity V). In the case of the determination of α–glucosidase type of inhibition, the substrate was changed from corn starch to maltodextrin (MD100, Luzhou Bio–Chem Technology Co., Shandong, China), in order to have greater uniformity in the reaction.
# α–glucosidases [2] = assay: α–glucosidase inhibition assay (crude intestinal enzyme, corn starch substrate); format: biochemical, Wistar rats; settings: for IC50: pure compounds, intestinal rat enzyme, starch as substrate; for Inhibition percentage α–glucosidases: mean ± standard deviation
# Experimental: The α–glucosidase assay was previously reported. In brief, corn starch (4 mg/mL) was digested by crude enzyme at 37°C during 10 minutes in a phosphate buffer pH 7 solution at a sample concentration of 0.6 mg/mL (dissolved in DMSO and water). Subsequently, released glucose was quantified by a glucose oxidase-based clinical reagent with the GOD–POD Trinder kit (Spinreact, Girona, Spain) following manufacturer's directions. All tests were performed in quadruplicate. Crude enzyme was obtained directly from healthy Wistar rats (12 h fasting). The small intestine was flushed several times with ice-cold isotonic buffer pH 7 and after the scraping of the mucosa, it was homogenized and stored at -20°C. Animal care and management were carried out under the guidelines of Mexican Official Standard NOM–062–ZOO–1999.
# as §1
# α–glucosidases [3] = assay: Type of inhibition and Ki on α–glucosidases by Lineweaver–Burk plots (maltodextrin substrate); format: biochemical, Wistar rats; settings: for Type of enzymatic inhibition of α–glucosidases: Lineweaver–Burk plots
# Experimental: as §2
# Michaelis–Menten constant (Km) and apparent Km (Km^app) were obtained analysing the Lineweaver–Burk plots. These values allowed to obtain the inhibition constant (Ki) for competitive inhibitors using (2), where [I] represents inhibitor concentration.(2) Km^app=Km1+I/Ki
# maltase = molecular target: maltase; parameters: method as in doi:10.1016/j.foodchem.2010.03.075; settings: rat; read-out: IC50 inhibition of maltase; cited from earlier work
# sucrase = molecular target: sucrase; parameters: method as in doi:10.1016/j.foodchem.2010.03.075; settings: rat; read-out: IC50 inhibition of sucrase; cited from earlier work
# [4] = mean ± standard deviation, read-out: Inhibition percentage Pancreatic lipase
SMILES,"inhibition at 250 µg/mL [1, 4]",IC50 (α–glucosidases [2]),Inhibition percentage α–glucosidases (α–glucosidases [2]; sample at 0.6 mg/mL),Type of enzymatic inhibition of α–glucosidases (α–glucosidases [3]),Ki (α–glucosidases [3]; inhibitor at 625 μM),Ki (α–glucosidases [3]; inhibitor at 1250 μM),IC50 (maltase),IC50 (sucrase),other results
"O=c1cc(-c2ccc(O)c(O)c2)oc2cc(O)c([C@@H]3O[C@H](CO)[C@@H](O)[C@H](O)[C@H]3O)c(O)c12 [C4F4–P (isoorientin), isoorientin]",55.1 ± 3.1%,–,–,–,–,–,–,–,IC50 ([1]; pure compound): 201 µM; Type of enzymatic inhibition of pancreatic lipase (pancreatic lipase): uncompetitive enzymatic inhibition
"CCCCCCCCCCC[C@@H](C[C@@H]1OC(=O)[C@H]1CCCCCC)OC(=O)[C@H](CC(C)C)NC=O [Orlistat, orlistat, reference compound]",–,–,–,–,–,–,–,–,"inhibition at 1.6 µM ([1]; evaluated at 1.6 µM, mean ± standard deviation, read-out: Inhibition percentage Pancreatic lipase): 50 ± 2.6%"
"C[C@H]1O[C@H](O[C@H]2[C@H](O)[C@@H](O)[C@@H](O[C@H]3[C@H](O)[C@@H](O)C(O)O[C@@H]3CO)O[C@@H]2CO)[C@H](O)[C@@H](O)[C@@H]1N[C@H]1C=C(CO)[C@@H](O)[C@H](O)[C@H]1O (some centres unmarked) [Acarbose, acarbose, reference compound]",–,–,–,–,–,–,–,–,Inhibition percentage α–glucosidases (α–glucosidases [2]; evaluated at 5.8 µM): 50.0 ± 1.6∗ %

# The next lines start with results.
"inhibition at 250 µg/mL [1, 4]",IC50 (α–glucosidases [2]),Inhibition percentage α–glucosidases (α–glucosidases [2]; sample at 0.6 mg/mL),Type of enzymatic inhibition of α–glucosidases (α–glucosidases [3]),Ki (α–glucosidases [3]; inhibitor at 625 μM),Ki (α–glucosidases [3]; inhibitor at 1250 μM),SMILES,IC50 (maltase),IC50 (sucrase),other results
–,1260 µM,66.3 ± 5.6%,–,–,–,"O=c1cc(-c2ccc(O)c(O)c2)oc2cc(O)cc(O)c12 [Luteolin, reference compound]",–,–,IC50 (α–glucosidases [2]; listed as luteolin): ~1260 µM
–,969 µM,98.9 ± 0.6%,competitive enzymatic inhibition,436 µM,208 µM,"O=C(O)c1cc(O)c(O)c(O)c1 [C2F1 (gallic acid), gallic acid]",390 µM,130 µM,–
23.2 ± 3%,832 µM,98.4 ± 2.0%,competitive enzymatic inhibition,636 µM,315 µM,"CCOC(=O)c1cc(O)c(O)c(O)c1 [C1F1 (ethyl gallate), ethyl gallate]",415 µM,660 µM,–
